Data: patent publication EP1083874B1, “Use of a compound for the preparation of a medicament for treating alopecia or promoting hair growth in an animal” (GPI NIL Holdings, Inc., priority 1998, dated 1999)

biological target: FKBP12 (Homo sapiens, UniProt P62942); test: Ki test procedure: inhibition of peptidyl-prolyl isomerase (rotamase) activity, chymotrypsin-coupled assay; type: biochemical; settings: apparent Ki
Text: The inhibition of the prolyl peptidyl cis-trans isomerase activity of FKBP may be measured as an indicator of this affinity.
Inhibition of the peptidyl-prolyl isomerase (rotamase) activity of the compounds used in the pharmaceutical compositions can be evaluated by known methods described in the literature (Harding et al., Nature, 1989, 341:758-760; Holt et al. J. Am. Chem. Soc., 115:9923-9938).
The cis-trans isomerization of an alanine-proline bond in a model substrate, N-succinyl-Ala-Ala-Pro-Phe-p-nitroanilide, is monitored spectrophotometrically in a chymotrypsin-coupled assay, which releases para-nitroanilide from the trans form of the substrate. The inhibition of this reaction caused by the addition of different concentrations of inhibitor is determined, and the data is analyzed as a change in first-order rate constant as a function of inhibitor concentration to yield the apparent Ki values.
In a plastic cuvette are added […] of ice cold assay buffer (25 mM HEPES, pH 7.8, 100 mM NaCl), 10 mL of FKBP (2.5 mM in 10 mM Tris-Cl pH 7.5, 100 mM NaCl, 1 mM dithiothreitol), 25 mL of chymotrypsin (50 mg/ml in 1 mM HCl) and […] of test compound at various concentrations in dimethyl sulfoxide. The reaction is initiated by the addition of 5 mL of substrate (succinyl-Ala-Phe-Pro-Phe-para-nitroanilide, 5 mg/mL in 2.35 mM LiCl in trifluoroethanol).
The absorbance at 390 nm versus time is monitored for 90 seconds using a spectrophotometer and the rate constants are determined from the absorbance versus time data files.

Sequence of FKBP12 (P62942 whole entry, species assumed): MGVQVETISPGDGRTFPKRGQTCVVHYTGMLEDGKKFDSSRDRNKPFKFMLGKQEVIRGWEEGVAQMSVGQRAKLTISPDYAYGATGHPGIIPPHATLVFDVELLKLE

| Structure (SMILES) | Ki [nM] |
| --- | --- |
| O=C(C(=O)N1CCCC[C@H]1C(=O)OCc1ccccc1)c1ccccc1 [Compound 10] | 1500 |
| O=C(C(=O)N1CCCC[C@H]1C(=O)OCCCCc1ccccc1)c1ccccc1 [Compound 13] | 350 |
| O=C(C(=O)N1CCCC[C@H]1C(=O)OCCc1ccccc1)c1ccccc1 [Compound 14] | 1100 |
| O=C(C(=O)N1CCCC[C@H]1C(=O)OCCCCC1CCCCC1)c1ccccc1 [Compound 15] | 400 |
| COC(=O)C(=O)N1CCCC[C@H]1C(=O)OCc1ccccc1 [Compound 16] | 80000 |
| COc1ccc(CCCCOC(=O)[C@@H]2CCCCN2C(=O)C(=O)c2cc(OC)c(OC)c(OC)c2)cc1 [Compound 25] | 13 |

The next lines start with the values.

| Ki [nM] | Structure (SMILES) |
| --- | --- |
| 20000 | COC(=O)C(=O)N1CCCC[C@H]1C(=O)OCCCC1CCCCC1 [Compound 18] |
| 35000 | COC(=O)C(=O)N1CCCC[C@H]1C(=O)OCCCC1CCCC1 [Compound 19] |
| 3000 | O=C(C(=O)N1CCCC[C@H]1C(=O)OCc1ccccc1)c1ccco1 [Compound 20] |
| 19 | COc1cc(C(=O)C(=O)N2CCCC[C@H]2C(=O)OCCCCc2ccccc2)cc(OC)c1OC [Compound 23] |
